Columns and labels:
Format in all cases: functional
Staphylococcus aureus [1] = assay: Antimicrobial activity against methicillin-susceptible Staphylococcus aureus Smith by NCCLS method
Staphylococcus aureus [2] = assay: Antimicrobial activity against methicillin-resistant Staphylococcus aureus KMP9
Streptococcus pneumoniae [3] = assay: Antimicrobial activity against penicillin-susceptible Streptococcus pneumoniae ATCC 49619 by NCCLS method
Streptococcus pneumoniae [4] = assay: Antimicrobial activity against penicillin-resistant Streptococcus pneumoniae KT2524 by NCCLS method
Streptococcus pyogenes = assay: Antimicrobial activity against Streptococcus pyogenes ATCC 112344 by NCCLS method
Enterococcus faecium = assay: Antimicrobial activity against vancomycin-resistant Enterococcus faecium KU1778 by NCCLS method
Moraxella catarrhalis = assay: Antimicrobial activity against Moraxella catarrhalis K1209 by NCCLS method
Haemophilus influenzae = assay: Antimicrobial activity against Haemophilus influenzae TH13 by NCCLS method
Staphylococcus aureus [5] = assay: Antimicrobial activity against methicillin-susceptible Staphylococcus aureus infected iv dosed mouse assessed as survival rate after 1 hr of infection

Row | Compound | MIC (Staphylococcus aureus [1]) [µg/mL] | MIC (Staphylococcus aureus [2]) [µg/mL] | MIC (Streptococcus pneumoniae [3]) [µg/mL] | MIC (Streptococcus pneumoniae [4]) [µg/mL] | MIC (Streptococcus pyogenes) [µg/mL] | MIC (Enterococcus faecium) [µg/mL] | MIC (Moraxella catarrhalis) [µg/mL] | MIC (Haemophilus influenzae) [µg/mL] | ED50 (Staphylococcus aureus [5]) [mg/kg]
1 | C=C[C@]1(C)C[C@@H](OC(=O)CN2CCN(C(=O)CCn3cnc4c(N5CCC(N)C5)ncnc43)CC2C)[C@]2(C)[C@H](C)CC[C@]3(CCC(=O)[C@@H]32)[C@@H](C)[C@@H]1O.Cl.Cl (some centres undefined) | 0.25 | 0.5 | 0.063 | 0.063 | 0.032 | 0.125 | 0.125 | 2 | 1.42
2 | C=C[C@]1(C)C[C@@H](OC(=O)CN2CCN(C(=O)CCn3cnc4c(N5CCC(N)C5)ncnc43)C[C@H]2C)[C@]2(C)[C@H](C)CC[C@]3(CCC(=O)[C@@H]32)[C@@H](C)[C@@H]1O.Cl.Cl (some centres undefined) | 0.25 | 0.5 | 0.032 | 0.063 | 0.016 | 0.063 | 0.063 | 2 | 1.42
3 | C=C[C@]1(C)C[C@@H](OC(=O)CN2CC(C)N(C(=O)CCn3cnc4c(N5CCC(N)C5)ncnc43)CC2C)[C@]2(C)[C@H](C)CC[C@]3(CCC(=O)[C@@H]32)[C@@H](C)[C@@H]1O.Cl.Cl (some centres undefined) | 0.25 | 0.25 | 0.063 | 0.063 | 0.032 | 0.125 | 0.125 | 4 | 3.13
4 | C=C[C@]1(C)C[C@@H](OC(=O)CN2CCN(C(=O)CCn3cnc4c(N5CCC(N)C5)ncnc43)C(C)(C)C2)[C@]2(C)[C@H](C)CC[C@]3(CCC(=O)[C@@H]32)[C@@H](C)[C@@H]1O.Cl.Cl (some centres undefined) | 0.125 | 0.125 | 0.032 | 0.032 | 0.016 | 0.063 | 0.032 | 4 | 2.32
5 | C=C[C@]1(C)C[C@@H](OC(=O)CN2CC(C)N(C(=O)CCn3cnc4c(N5CCC(N)C5)ncnc43)C(C)C2)[C@]2(C)[C@H](C)CC[C@]3(CCC(=O)[C@@H]32)[C@@H](C)[C@@H]1O.Cl.Cl (some centres undefined) | 0.125 | 0.125 | 0.016 | 0.016 | 0.016 | 0.063 | 0.063 | 4 | > 3.13
6 | C=C[C@]1(C)C[C@@H](OC(=O)CN2CCN(C(=O)CCn3cnc4c(N5CCC(N)C5)ncnc43)C[C@@H]2C)[C@]2(C)[C@H](C)CC[C@]3(CCC(=O)[C@@H]32)[C@@H](C)[C@@H]1O.Cl (some centres undefined) | 0.25 | 0.5 | 0.125 | 0.063 | 0.032 | 0.125 | 0.125 | 4 | 1.28

Source: ChEMBL document CHEMBL1139278 (2009)
